Activity calls are given as the source filed them. The rule behind the calls is not given here.
Experiments:
Mus musculus [1] = experiment: Antinociceptive activity in Kunming mouse model assessed as latency of tail withdrawal at 1312 nmol/kg, sc measured for 120 mins by tail-flick test relative to control; assay type: functional; settings: 2 h
Mu-type opioid receptor [2] = target: T1, Mu-type opioid receptor (Homo sapiens, UniProt P35372); experiment: Agonist activity at human MOR expressed in CHO-K1 cells co-expressing G-alpha15 by calcium mobilization assay; assay type: functional, cell-based
Mus musculus [3] = experiment: Antinociceptive activity in Kunming mouse model assessed as latency of tail withdrawal at 1312 nmol/kg, sc measured for 30 mins by tail-flick test relative to control; assay type: functional; settings: 0.5 h
Mu-type opioid receptor [4] = target: T1, Mu-type opioid receptor; experiment: Agonist activity at human MOR expressed in CHO-K1 cells co-expressing G-alpha15 by calcium mobilization assay relative to control; assay type: functional, cell-based; settings: filed as agonist
Mus musculus [5] = experiment: Antinociceptive activity in Kunming mouse model assessed as latency of tail withdrawal at 1312 nmol/kg, sc measured for 60 mins by tail-flick test relative to control; assay type: functional; settings: 1 h
[6] = target: T2, Delta-type opioid receptor (Homo sapiens, UniProt P41143); experiment: Agonist activity at human DOR expressed in CHO-K1 cells co-expressing G-alpha15 by calcium mobilization assay; assay type: functional, cell-based
Mus musculus [7] = experiment: Antinociceptive activity in Kunming mouse model assessed as latency of tail withdrawal at 1312 nmol/kg, sc measured for 10 mins by tail-flick test relative to control; assay type: functional
[8] = target: T2, Delta-type opioid receptor; experiment: Agonist activity at human DOR expressed in CHO-K1 cells co-expressing G-alpha15 by calcium mobilization assay relative to control; assay type: functional, cell-based; settings: filed as agonist
Mus musculus [9] = experiment: Antinociceptive activity in Kunming mouse model assessed as latency of tail withdrawal at 1362 nmol/kg, sc measured for 10 mins by tail-flick test relative to control; assay type: functional
Mus musculus [10] = experiment: Antinociceptive activity in Kunming mouse model assessed as latency of tail withdrawal at 1362 nmol/kg, sc measured for 30 mins by tail-flick test relative to control; assay type: functional; settings: 0.5 h
Mus musculus [11] = experiment: Antinociceptive activity in Kunming mouse model assessed as latency of tail withdrawal at 1362 nmol/kg, sc measured for 60 mins by tail-flick test relative to control; assay type: functional; settings: 1 h
Mus musculus [12] = experiment: Antinociceptive activity in Kunming mouse model assessed as latency of tail withdrawal at 1362 nmol/kg, sc measured for 120 mins by tail-flick test relative to control; assay type: functional; settings: 2 h
Mus musculus [13] = experiment: Antinociceptive activity in Kunming mouse model at 1416 nmol/kg, sc in presence of beta-FNA by tail-flick test; assay type: functional, organism-based
Mus musculus [14] = experiment: Antinociceptive activity in Kunming mouse model at 1416 nmol/kg, sc in presence of NTI by tail-flick test; assay type: functional, organism-based
Mus musculus [15] = experiment: Antinociceptive activity in Kunming mouse model at 1416 nmol/kg, sc in presence of nor-BNI by tail-flick test; assay type: functional, organism-based
[16] = target: T3, Kappa-type opioid receptor (Homo sapiens, UniProt P41145); experiment: Agonist activity at human KOR expressed in CHO-K1 cells co-expressing G-alpha15 by calcium mobilization assay relative to control; assay type: functional, cell-based; settings: filed as agonist
Mus musculus [17] = experiment: Antinociceptive activity in Kunming mouse model at 1416 nmol/kg, sc pretreated with NALM subcutaneously followed by compound administration by tail-flick test; assay type: functional, organism-based
Mus musculus [18] = experiment: Antinociceptive activity in Kunming mouse model at 1416 nmol/kg, sc pretreated with NALM intracerebroventricularly followed by compound administration by tail-flick test; assay type: functional, organism-based
Mus musculus [19] = experiment: Antinociceptive activity in Kunming mouse model at 132.2 nmol/kg, sc in presence of NTI by tail-flick test; assay type: functional, organism-based
Mus musculus [20] = experiment: Antinociceptive activity in Kunming mouse model at 132.2 nmol/kg, sc in presence of nor-BNI by tail-flick test; assay type: functional, organism-based
Mus musculus [21] = experiment: Antinociceptive activity in Kunming mouse model at 132.2 nmol/kg, sc pretreated with NALM intracerebroventricularly followed by compound administration by tail-flick test; assay type: functional, organism-based
Mus musculus [22] = experiment: Antinociceptive activity in Kunming mouse model at 132.2 nmol/kg, sc pretreated with NALM subcutaneously followed by compound administration by tail-flick test; assay type: functional, organism-based
[23] = target: T3, Kappa-type opioid receptor; experiment: Agonist activity at human KOR expressed in CHO-K1 cells co-expressing G-alpha15 upto 100 uM by calcium mobilization assay; assay type: functional, cell-based
Mus musculus [24] = experiment: Antinociceptive activity in Kunming mouse model at 132.2 nmol/kg, sc in presence of beta-FNA by tail-flick test; assay type: functional, organism-based

T1 sequence (P35372 whole entry): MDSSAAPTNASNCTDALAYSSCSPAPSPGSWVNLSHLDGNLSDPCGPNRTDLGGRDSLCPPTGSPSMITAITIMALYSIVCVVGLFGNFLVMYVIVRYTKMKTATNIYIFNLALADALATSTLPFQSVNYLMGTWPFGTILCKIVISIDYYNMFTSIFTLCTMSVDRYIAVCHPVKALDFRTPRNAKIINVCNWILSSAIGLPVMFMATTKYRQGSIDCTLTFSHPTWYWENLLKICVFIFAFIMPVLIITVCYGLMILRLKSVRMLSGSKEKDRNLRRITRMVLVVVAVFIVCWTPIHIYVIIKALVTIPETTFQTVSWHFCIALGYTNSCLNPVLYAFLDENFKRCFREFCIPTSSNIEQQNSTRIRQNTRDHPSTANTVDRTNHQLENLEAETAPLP
T2 sequence (P41143 whole entry): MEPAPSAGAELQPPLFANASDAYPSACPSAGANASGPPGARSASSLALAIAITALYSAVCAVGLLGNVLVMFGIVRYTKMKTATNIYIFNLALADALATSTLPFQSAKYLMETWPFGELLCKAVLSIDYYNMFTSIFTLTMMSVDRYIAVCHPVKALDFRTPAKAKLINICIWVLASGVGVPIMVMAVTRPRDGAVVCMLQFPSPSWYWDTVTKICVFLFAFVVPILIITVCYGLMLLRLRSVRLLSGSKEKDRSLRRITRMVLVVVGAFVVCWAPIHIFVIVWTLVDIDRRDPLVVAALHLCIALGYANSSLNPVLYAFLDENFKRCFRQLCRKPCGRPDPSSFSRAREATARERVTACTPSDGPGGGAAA
T3 sequence (P41145 whole entry): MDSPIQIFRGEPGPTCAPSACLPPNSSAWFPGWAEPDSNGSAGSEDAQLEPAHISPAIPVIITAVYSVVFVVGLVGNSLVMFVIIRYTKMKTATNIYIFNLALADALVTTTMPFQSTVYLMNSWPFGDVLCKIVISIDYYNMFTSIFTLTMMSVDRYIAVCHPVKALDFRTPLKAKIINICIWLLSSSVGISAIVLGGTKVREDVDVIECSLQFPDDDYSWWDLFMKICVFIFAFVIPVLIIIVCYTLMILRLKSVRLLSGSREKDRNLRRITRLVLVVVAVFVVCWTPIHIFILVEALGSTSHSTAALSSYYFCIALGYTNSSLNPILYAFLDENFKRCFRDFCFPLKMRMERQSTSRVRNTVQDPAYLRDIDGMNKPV

Question: What does the source list for CCCC[C@@H]1NC(=O)[C@H](NC(=O)[C@@H](N)Cc2ccc(O)cc2)CCCCNC(=O)C[C@H](C(=O)N2CCC[C@H]2C(N)=O)NC(=O)[C@H](Cc2ccccc2)NC1=O?
Answer: MPE (Mus musculus [1]): 28%; EC50 (Mu-type opioid receptor [2]): 2170 nM; MPE (Mus musculus [3]): 90%; Emax (Mu-type opioid receptor [4]): 88.6%; MPE (Mus musculus [5]): 75.1%; EC50 [6]: 20 nM; MPE (Mus musculus [7]): 50.4%; Emax [8]: 83.9%

Question: With Cc1cc(O)cc(C)c1C[C@H](N)C(=O)N[C@@H]1CCCCNC(=O)C[C@@H](C(=O)N2CCC[C@@H]2C(N)=O)NC(=O)[C@H](Cc2ccccc2)NC(=O)CNC1=O as the molecule, how does the MPE (Mus musculus [9]) read?
Answer: The MPE was 75%.

Question: And the MPE (Mus musculus [10])?
Answer: Its MPE is 90.5%.

Question: What about the MPE (Mus musculus [11]) of the same molecule?
Answer: Its MPE is 73.4%.

Question: What about the MPE (Mus musculus [12]) of the same molecule?
Answer: The MPE was 44.5%.

Question: What does the source list for NC(=O)[C@@H]1CCCN1C(=O)[C@H]1CC(=O)NCCCC[C@@H](NC(=O)[C@@H](N)Cc2ccc(O)cc2)C(=O)NCC(=O)N[C@@H](Cc2ccccc2)C(=O)N1?
Answer: Emax (Mu-type opioid receptor [4]): 109%; Activity (Mus musculus [13]): inactive; Activity (Mus musculus [14]): Active; Activity (Mus musculus [15]): inactive; Emax [16]: 103%; Activity (Mus musculus [17]): inactive; Emax [8]: 107%; Activity (Mus musculus [18]): Active

Question: What does the source list for NC(=O)[C@@H]1CCCN1C(=O)[C@H]1CC(=O)NCCCC[C@@H](NC(=O)[C@@H](N)Cc2ccc(O)cc2)C(=O)NCC(=O)N[C@@H](Cc2ccc3ccccc3c2)C(=O)N1?
Answer: Activity (Mus musculus [19]): Active; Activity (Mus musculus [20]): Active; Emax (Mu-type opioid receptor [4]): 98.6%; Activity (Mus musculus [21]): Active; Activity (Mus musculus [22]): inactive; Activity [23]: inactive; Emax [8]: 110%; Activity (Mus musculus [24]): inactive
